How the values were obtained:
[1] = target: T1, Synaptic vesicular amine transporter (Rattus norvegicus, UniProt Q01827); assay: Inhibition of VMAT2-mediated [3H]dopamine uptake in rat synaptic vesicle membranes; assay type: cell membranes, Membrane
[2] = target: T1, Synaptic vesicular amine transporter; assay: Displacement of [3H]DTBZ from VMAT2 in rat synaptic vesicle membranes after 30 mins by liquid scintillation counting; assay type: cell membranes, Membrane
[3] = Aqueous solubility in water; assay type: physicochemical

T1 sequence (Q01827 whole entry): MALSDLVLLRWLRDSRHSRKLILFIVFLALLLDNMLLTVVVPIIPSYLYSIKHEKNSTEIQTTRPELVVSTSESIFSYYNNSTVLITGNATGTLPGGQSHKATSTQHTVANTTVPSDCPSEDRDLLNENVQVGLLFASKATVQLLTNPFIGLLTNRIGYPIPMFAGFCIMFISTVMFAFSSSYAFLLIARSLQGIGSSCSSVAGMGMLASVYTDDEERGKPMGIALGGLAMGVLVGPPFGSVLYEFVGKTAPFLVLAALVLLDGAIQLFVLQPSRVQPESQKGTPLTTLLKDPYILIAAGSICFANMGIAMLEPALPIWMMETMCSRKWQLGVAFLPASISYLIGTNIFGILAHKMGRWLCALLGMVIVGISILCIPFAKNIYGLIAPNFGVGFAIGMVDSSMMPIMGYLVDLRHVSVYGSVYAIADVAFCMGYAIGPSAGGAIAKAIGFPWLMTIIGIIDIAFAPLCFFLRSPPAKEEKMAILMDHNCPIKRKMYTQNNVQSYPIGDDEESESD

| SMILES | Ki [1] [µM] | Ki [2] [µM] | solubility [3] [µg/mL] |
| --- | --- | --- | --- |
| CN1[C@@H](CCc2ccc3ccccc3n2)CCC[C@H]1CCc1ccc2ccccc2n1 | 0.067 | 0.96 |  |
| CN1[C@@H](CCc2c[nH]c3ccccc23)CCC[C@H]1CCc1c[nH]c2ccccc12 | 2.13 | 26 |  |
| CN1[C@@H](CCc2ccncc2)CCC[C@H]1CCc1ccncc1 | 5.23 | 5.87 |  |
| CN1[C@@H](CCc2ccccc2)CCC[C@H]1CCc1ccccc1.O=S(=O)(O)O |  |  | 300 |
| CN1[C@@H](CCc2cccnc2)CCC[C@H]1CCc1cccnc1 | 3.72 | 33.3 |  |
| CN1[C@@H](CCc2ccnc3ccccc23)CCC[C@H]1CCc1ccnc2ccccc12.Cl [QUINLOBELANE] | 0.051 | 2.64 | ≥ 20000 |
